Results as given in US5731334A, “Method for treating cancer using taxoid onium salt prodrugs” (priority 1995, dated 1998).

How the values were obtained:
tubulin = assay: Tubulin polymerization-depolymerization (microtubule assembly-disassembly) assay; format: biochemical, calf
[1] = tested on: UCLA-P3 lung carcinoma cells; assay: XTT dye binding cytotoxicity assay, UCLA-P3; format: cell-based; settings: Homo sapiens, UCLA P-3, 72 h
Protocol: (§1) All cell lines described herein were obtained from the ATCC and maintained in media formulations as recommended by the supplier. The cell lines were tested for mycoplasma contamination prior to incubation at 37° C. in 5% carbon dioxide. Normal human dermal fibroblasts, peripheral blood lymphoblasts and mammary epithelial cells were obtained from Clonogenic Cor., San Diego, Calif. and were maintained under the above incubation conditions in special media provided by the supplier.
(§2) Antiproliferative activities of the onium salts were determined using the XTT dye binding assay. Cells were harvested with trypsin/EDTA (Irvine Scientific), washed, resuspended in the appropriate medium, and counted in a hemocytometer using Trypan Blue to determine viability. Then 10^4 cells/well were added to 96 well microtiter plates and incubated for 24 hours before addition of drug at concentrations in the range of 10^-4 to 10^-13 molar by direct addition from DMSO solutions. After 72 hours, XTT binding dye was added and incubation was continued for 4 hours. The inhibition of cell proliferation was quantified using a Molecular Devices Microplate Reader. The absorbance of XTT was measured at […]. The concentration of drug which inhibited growth of cells by 50% was calculated from duplicated determinations.

[2] = tested on: Capan 1 pancreas cancer cells; assay: XTT dye binding cytotoxicity assay, Capan 1; format: cell-based; settings: Homo sapiens; Capan 1, pancreas cancer; 72 h; read-out: IC50
Protocol: as §1, §2

[3] = tested on: RPMI-7666 blood lymphoblasts; assay: XTT dye binding cytotoxicity assay, RPMI-7666; format: cell-based; settings: Homo sapiens; RPMI-7666, blood lymphoblasts (untransformed); 72 h; read-out: IC50
Protocol: as §1, §2

[4] = tested on: PC-3 prostate carcinoma tumor xenograft; settings: in vivo
Protocol: (§3) Athymic nude mice were purchased from Harlan-Sprague-Dawley. The animals were housed in microisolated cases under positive air pressure and all manipulations and drug treatments were performed in a laminar flow cabinet. Tumor cells were grown under the above tissue culture conditions. Cell suspensions in RPMI medium were injected S./C. Treatment was started one day after inoculation by i.p. injection of 400 μl drug solutions. Tumors were measured 3 times weekly in two dimensions, using calipers and tumor volume as calculated using the formula (V=w^2 ×L×(3.142).
(§4) The tumor model was generated from an ATTC PC-3 prostate carcinoma cell line that was maintained under standard cell proliferation conditions, viz. 37° C., 5% carbon dioxide in sterile air. Each cohort was comprised of eight randomly chosen female athymic nude mice, for a total population size of twenty four. Hemocytometer counted cells, suspended in Hanks mediun (Gibco, Grand Island N.Y.) were implanted S.C. (10^6 cells in 0.4 mL per mouse). Solid tumor growth was measured on each third day. Equimolar amounts of the test compounds (1.0 mM, 400 μL) were injected i.p. on days 1, 3, 5, 7, 9, and 11 using the following media:
(§5) (.smallcircle.): Control, 5% dextrose in 5× distilled water (5 DW)
(§6) (Δ): Taxol (18.0 mg/kg of animal weight or approximately 1.260 mg/m^2) suspended in Cremaphor/D5W
(§7) Inferences about efficacy were drawn by ANOVA followed by protected t-test. […] Data shown as mean value with standard error.

[5] = tested on: 786-0 renal cell carcinoma cells; assay: XTT dye binding cytotoxicity assay, 786-0; format: cell-based; settings: Homo sapiens; 786-0, renal cell carcinoma; 72 h; read-out: IC50
Protocol: as §1, §2

[6] = tested on: A549 lung adenocarcinoma tumor xenograft; assay: Human lung adenocarcinoma A549 xenograft in nude mice; settings: 1.0 mM, 400 μL i.p. days 1, 3, 5, 7, 9, 11
Protocol: as §3
The tumor model was generated from A549 cell line, an ATTC that was maintained under standard cell proliferation conditions (37° C., 5% carbon dioxide in sterile air). Each cohort was comprised of six randomly chosen female athymic nude mice, for a total population size of twenty four mice. Hemocytometer counted cells, suspended in Hanks mediun (Gibco, Grand Island N.Y.) were implated S.C. (10^6 cells in 0.4 mL per mouse). Solid tumor growth was measured on each third day. Equimolar amounts of the test compounds (1.0 mM, 400 μL) were injected i.p. on days 1, 3, 5, 7, 9, and 11 using the following media:
(Δ): Control, saline in 5× distilled water (5 DW)
(.smallcircle.): Taxol (18.0 mg/kg of animal weight or approximately 1,260 mg/m^2) suspended in Cremaphor/D5W […]

[7] = tested on: PC-3 prostate carcinoma tumor xenograft; assay: PC-3 prostate tumor xenograft in nude mice
Protocol: as §3, §4, §5, §6, §7

NHDF dermal fibroblast = assay: XTT dye binding cytotoxicity assay, NHDF; format: cell-based; settings: Homo sapiens, dermal fibroblast (untransformed), 72 h, read-out: IC50
Protocol: as §1, §2

[8] = Toxicity and survival in vivo (tumor bearing nude mice)
SK-Mel-28 melanoma cells = assay: XTT dye binding cytotoxicity assay, SK-Mel-28; format: cell-based; settings: Homo sapiens; SK-Mel-28, melanoma; 72 h; read-out: IC50
Protocol: as §1, §2

[9] = tested on: Ovcar 3 ovarian carcinoma tumor xenograft
Protocol: as §3
The tumor model was generated from an ATTC Ovcar 3 carcinoma cell line that was maintained under standard cell proliferation conditions, viz. 37° C., 5% carbon dioxide in sterile air. Each cohort was comprised of eight randomly chosen female athymic nude mice, for a total population size of twenty four. Hemocytometer counted cells, suspended in Hanks medium (Gibco, Grand Island N.Y.) were implanted S.C. (10^6 cells in 0.4 mL per mouse). Solid tumor growth was measured on each third day. Equimolar amounts of the test compounds (1.0 mM, 400 μL) were injected i.p. on days 1, 3, 5, 7, 9, and 11 using the following media:
(.quadrature.): Control, saline in 5× distilled water (D5W) […]

tumor cell lines = assay: Cytotoxicity, summary over tumor cell lines (XTT); format: cell-based, human and murine; settings: on average
Protocol: Antiproliferative activities of the onium salts were determined using the XTT dye binding assay. Cells were harvested with trypsin/EDTA (Irvine Scientific), washed, resuspended in the appropriate medium, and counted in a hemocytometer using Trypan Blue to determine viability. […] After 72 hours, XTT binding dye was added and incubation was continued for 4 hours. The inhibition of cell proliferation was quantified using a Molecular Devices Microplate Reader. […] The concentration of drug which inhibited growth of cells by 50% was calculated from duplicated determinations.

Structure (SMILES): CC(=O)O[C@H]1C(=O)[C@@]2(C)[C@H]([C@H](OC(=O)c3ccccc3)[C@]3(O)C[C@H](OC(=O)[C@H](Oc4cccc[n+]4C)[C@@H](NC(=O)c4ccccc4)c4ccccc4)C(C)=C1C3(C)C)[C@]1(OC(C)=O)CO[C@@H]1C[C@@H]2O [Compound 2]
- tubulin binding in words (tubulin): no tubulin binding
- reversal to tubulin (calcium induced depolymerization) (tubulin; CaCl2, 10^-6 M drug): about 70%
- IC50 [1]: 2.44 nM
- IC50 [2]: 5.7 nM
- IC50 [3]: 131 nM
- mice surviving treatment, PC-3 [4]: all of the mice given either the 2'- or 7-isomers survived
- IC50 [5]: 27.4 nM
- tumor growth inhibition, A549 [6]: inhibited tumor growth nearly completely
- antitumor activity, PC-3 ([7]; 1.0 mM, 400 μL i.p., established tumors): regression of established tumors
- complete remission with no palpable tumor mass, PC-3 ([7]; at termination, after 24 days): 5 out of 8 animals
- IC50 (NHDF dermal fibroblast): 377 nM
- Toxicity ([8]; Table II, in vivo): low
- % survival ([8]; at end of experiments): 100%
- in vivo tolerance / toxicity in words ([8]; nude mice): well tolerated, showing no visible toxic side effects and no significant weight loss
- IC50 (SK-Mel-28 melanoma cells): 87.9 nM
- tumor growth inhibition, Ovcar-3 ([9]; 1.0 mM, 400 μL i.p. days 1, 3, 5, 7, 9, 11): complete inhibition of tumor growth
- survival of animals, Ovcar-3 ([9]; in vivo): 100%
- cytotoxicity relative to the C-7-isomer (3) (tumor cell lines): about 10 fold
